# Measurements reported in patent US20220257593A1, “CARABACHOL-BROMONIDINE FORMULATION TO ENHANCE ANTI-PRESBYOPIA EFFECTS” (Visus Therapeutics, Inc., priority 2019, published 2022).
# Several values for one entry are separate records, joined by “and”; a condition that tells them apart may be missing. Identical values can stand only once. Entries after “also recorded” stand apart in the source; their conditions may differ. Like-named read-outs stand apart in the source and are kept apart here.
# How the values were obtained:
# [1] = system: emmetropic and presbyopic subjects, non-dominant eye; assay: Examples 7 and 13 crossover trial: near visual acuity, combined vs separate 3% carbachol and 0.2% brimonidine, carbachol alone, brimonidine alone; format: in vivo, human; conditions: for NVA (mean near visual acuity): mean ± SD, ten subjects, pre-treatment 8.6 ± 1.5
# Experimental: Participants were volunteers selected at random.
# (§1) A prospective, double-masked, randomized, controlled clinical trial was conducted.
# Participants were randomly selected volunteers.
# (§2) The 3% carbachol drops included 50 ppm of benzalkonium chloride.
# [2] = system: emmetropic and presbyopic subjects, non-dominant eye; assay: Examples 7 and 13 crossover trial: pupil size (Colvard infrared pupilometer); format: in vivo, human; conditions: for PS (mean pupil size): mean ± SD, ten subjects, pre-treatment 4.3 ± 0.5
# Experimental: as §1, §2
# [3] = system: presbyopic subjects, non-dominant eye; assay: Example 8 dose range studies of carbachol and pilocarpine with and without brimonidine: near visual acuity (LogMAR) and pupil diameter; format: in vivo, human; conditions: for change in LogMAR VA, pilocarpine vs carbachol, each plus 0.2% brimonidine: FIGS. 12 and 13
# Experimental: Dose range studies were performed for carbachol and pilocarpine. […] Pilocarpine and carbachol were also compared to each other, with and without brimonidine.
# [4] = system: emmetropic, myopic and hyperopic presbyopes
# presbyopic subjects [5] = conditions: subjects receiving brimonidine drops
# presbyopic subjects [6] = assay: Example 8 dose range studies: tolerability, adverse symptoms and satisfaction survey
# Source text: Both Groups 1 and 2 received the same pre- and post-treatment work-up and measurements: Age, gender, initial pupil size, and near vision acuity (NVA) were documented.
# The survey asked the patients whether they would use the drops again.
# [7] = Example 8: stability of pilocarpine at neutral pH; format: physicochemical; conditions: needs about pH 5
# [8] = FDA product insert for isoptocarpine; cited from earlier work
smiles,measurement,setting,value
"C[N+](C)(C)CCOC(N)=O [3% carbachol alone, carbachol]",NVA (mean near visual acuity),[1]; 1-h post-treatment,5.5 ± 1 J
same,NVA (mean near visual acuity),[1]; 2-h post-treatment,5.9 ± 0.8 J
same,NVA (mean near visual acuity),[1]; 4-h post-treatment,7 ± 1.2 J
same,NVA (mean near visual acuity),[1]; 8-h post-treatment,7.5 ± 1 J
same,mean near visual acuity (NVA),"[1]; 1 h post-treatment, before treatment J 8.6±1.5, 10 subjects crossover",5.5 ± 1 J
same,mean near visual acuity (NVA),[1]; 2 h post-treatment,5.9 ± 0.8 J
same,mean near visual acuity (NVA),[1]; 4 h post-treatment,7 ± 1.2 J
same,mean near visual acuity (NVA),[1]; 8 h post-treatment,7.5 ± 1 J
same,hours in which mean near visual acuity (NVA) was ≥20/40,"[1]; emmetropic presbyopes, FIG. 25",never achieved an NVA of ≥20/40
same,PS (mean pupil size),[2]; 1-h post-treatment,2.8 ± 0.3 mm
same,PS (mean pupil size),[2]; 2-h post-treatment,3 ± 0.3 mm
same,PS (mean pupil size),[2]; 4-h post-treatment,3.5 ± 0.3 mm
same,PS (mean pupil size),[2]; 8-h post-treatment,4 ± 0.3 mm
same,mean pupil size (PS),"[2]; 1 h post-treatment, before treatment 4.3±0.5 mm",2.8±0.3 mm
same,mean pupil size (PS),[2]; 2 h post-treatment,3±0.3 mm
same,mean pupil size (PS),[2]; 4 h post-treatment,3.5±0.3 mm
same,mean pupil size (PS),[2]; 8 h post-treatment,4±0.3 mm
same,hours in which mean pupil size reached the target pupil size of <2.5 mm,"[2]; emmetropic presbyopes, FIG. 24",never achieved the target pupil size during hours 1-8
"Brc1c(NC2=NCCN2)ccc2nccnc12 [Brimonidine 0.2%, brimonidine]",NVA (mean near visual acuity),[1]; 1-h post-treatment,7.7 ± 1.3 J
same,NVA (mean near visual acuity),[1]; 2-h post-treatment,8.2 ± 1.3 J
same,NVA (mean near visual acuity),[1]; 4-h post-treatment,8.5 ± 1.4 J
same,NVA (mean near visual acuity),[1]; 8-h post-treatment,8.6 ± 1.5 J
same,difference in mean NVA before treatment and at any time point after treatment,[1]; P >0.05,no statistically significant difference
same,"mean change / improvement in near visual acuity compared among combination, separate drops, carbachol alone, brimonidine alone",[1]; over eight hours,the least
same,PS (mean pupil size),[2]; 1-h post-treatment,3.95 ± 0.5 mm
same,PS (mean pupil size),[2]; 2-h post-treatment,4.2 ± 0.4 mm
same,PS (mean pupil size),[2]; 4-h post-treatment,4.3 ± 0.5 mm
same,PS (mean pupil size),[2]; 8-h post-treatment,4.3 ± 0.5 mm
same,effect on pupil size or NVA,[2]; 50 ppm benzalkonium chloride,virtually no effect
same,difference in mean PS before treatment and at any time point after treatment,[2]; P >0.05,no statistically significant difference
same,miotic effect,"[2]; first hour after instillation, light luminance conditions, not significant (P >0.05)",mild miotic effect
same,synergy with carbachol and pilocarpine,[3]; 0.2% brimonidine,synergistic with both carbachol and pilocarpine
same,difference in mean NVA before treatment and at any time point after treatment,[4]; Group 1 emmetropic presbyopes,No statistically significant difference in mean NVA
same,difference in mean NVA before treatment and at any time point after treatment,[4]; Group 2 myopic presbyopes,No statistically significant difference in mean NVA
same,difference in mean NVA before treatment and at any time point after treatment,[4]; Group 3 hyperopic presbyopes,No statistically significant difference in mean NVA
same,"mild burning sensation, number of subjects",presbyopic subjects [5],10 subjects
CC[C@@H]1C(=O)OC[C@@H]1Cc1cncn1C [Pilo Alone],Pilo Alone 1 hr nVA,"[3]; Pilo 0.5%, individual patients",3 J and 6 J and 5 J
same,Pilo Alone 1 hr pupil,"[3]; Pilo 0.5%, individual patients",3.8 and 3 (2×)
same,Pilo Alone 2 hrs nVA,"[3]; Pilo 0.5%, individual patients",5 J (2×) and 3 J (2×)
same,Pilo Alone 2 hrs pupil,"[3]; Pilo 0.5%, individual patients",3 and 4 and 2.5 and 3.3
same,Pilo Alone 4 hrs nVA,"[3]; Pilo 0.5%, individual patients",5 J (3×) and 3 J
same,Pilo Alone 4 hrs pupil,"[3]; Pilo 0.5%, individual patients",3.3 and 4 and 3 and 4.2
same,Pilo Alone 1 hr nVA,"[3]; Pilo 1%, individual patients",3 J (2×) and 2 J and 8 J
same,Pilo Alone 1 hr pupil,"[3]; Pilo 1%, individual patients",2.5 (2×) and 1.5 and 3
same,Pilo Alone 2 hrs nVA,"[3]; Pilo 1%, individual patients",3 J and 2 J (2×) and 8 J
same,Pilo Alone 2 hrs pupil,"[3]; Pilo 1%, individual patients",3 (2×) and 1.5 and 2.5
same,Pilo Alone 4 hrs nVA,"[3]; Pilo 1%, individual patients",5 J (2×) and 3 J and 10 J
same,Pilo Alone 4 hrs pupil,"[3]; Pilo 1%, individual patients",4 (2×) and 2.5 and 3
same,Pilo Alone 1 hr nVA,"[3]; Pilo .05%, patient 5",3 J
same,Pilo Alone 1 hr pupil,"[3]; Pilo .05%, patient 5",2.5
same,Pilo Alone 4 hrs pupil,"[3]; Pilo […], individual patients",4
"C[N+](C)(C)CCOC(N)=O [carbachol, reference compound]","change in LogMAR VA, pilocarpine vs carbachol, each plus 0.2% brimonidine",[3],favored carbachol for hours 8 and 10
same,duration of effect,[3]; in vivo,8 h
same,dose response for tolerability,"presbyopic subjects [6]; carbachol […], […], 3% plus brimonidine, seven days, FIG. 15",An inverse dose response
"CC[C@@H]1C(=O)OC[C@@H]1Cc1cncn1C [pilocarpine, reference compound]","change in LogMAR VA, pilocarpine vs carbachol, each plus 0.2% brimonidine",[3],favored pilocarpine for hours 1 and 2
same,onset and duration of effect,[3]; compared with carbachol,more immediate effect; also recorded: shorter duration
same,burning,presbyopic subjects [6]; in vivo,burned
same,stability at neutral pH,[7],unstable at neutral pH
same,brow ache rate,[8],> 5%
